ChEMBL document CHEMBL5034018, “LXR-Mediated Regulation of Marine-Derived Piericidins Aggravates High-Cholesterol Diet-Induced Cholesterol Metabolism Disorder in Mice” (J Med Chem, 2021)
Active and inactive are the calls of the source. The calls are words filed in the database; no cut-off is given here.

Tests used:
[1] = Toxicity in renal carcinoma xenografted C57BL/6 mouse assessed as effect on visceral coefficient of lung at 0.8 mg/kg, ip; format: organism-based; conditions: in vivo
[2] = Hepatotoxicity in renal carcinoma xenografted C57BL/6 mouse assessed as fold increase in plasma ALT at 0.8 mg/kg, ip; format: toxicity, organism-based; conditions: in vivo
[3] = Toxicity in HCD-fed C57BL/6 mouse assessed as body weight loss at 0.8 mg/kg, ip measured on day 28; format: organism-based; conditions: in vivo
[4] = Toxicity in HCD-fed C57BL/6 mouse assessed as fold increase in ALT level at 0.8 mg/kg, ip; format: organism-based; conditions: in vivo
Mus musculus [5] = species on record: Mus musculus; assay: Effect on bile acid homeostasis in HCD-fed C57BL/6 mouse assessed as change in Ppar-alpha mRNA expression by RT-qPCR analysis; format: functional
[6] = Toxicity in renal carcinoma xenografted C57BL/6 mouse kidney assessed as change in BUN level at 0.8 mg/kg, ip; format: organism-based; conditions: in vivo
HepG2 [7] = assay: Induction of apoptosis in human HepG2 cells assessed as change in caspase 3 protein expression at 1 to 5 uM after 48 hrs; format: functional, cell-based; conditions: dose 1-5 µM
[8] = Hepatotoxicity in renal carcinoma xenografted C57BL/6 mouse assessed as liver swelling at 0.8 mg/kg, ip; format: toxicity, organism-based; conditions: in vivo
[9] = Toxicity in mouse assessed as death at 10 mg/kg, po after 45 mins; format: organism-based; conditions: in vivo, 0.75 h
Mus musculus [10] = assay: Induction of HCD-induced cholestasis in C57BL/6 mouse assessed as fold increase in liver LDL-cholesterol level at 0.8 mg/kg, ip; format: organism-based; conditions: in vivo
Mus musculus [11] = species on record: Mus musculus; assay: Effect on bile acid homeostasis in HCD-fed C57BL/6 mouse assessed as change in Ugt1a1 mRNA expression by RT-qPCR analysis; format: functional
[12] = Hepatotoxicity in renal carcinoma xenografted C57BL/6 mouse assessed as appearance of pyknotic nucleus at 0.8 mg/kg, ip by histological analysis; format: toxicity, organism-based; conditions: in vivo
Mus musculus [13] = species on record: Mus musculus; assay: Effect on bile acid homeostasis in Chow diet-fed C57BL/6 mouse assessed as change in Car protein expression; format: functional
[14] = Hepatotoxicity in renal carcinoma xenografted C57BL/6 mouse assessed as white discoloration of liver at 0.8 mg/kg, ip; format: toxicity, organism-based; conditions: in vivo
[15] = Toxicity in renal carcinoma xenografted C57BL/6 mouse kidney assessed as change in CRE level at 0.8 mg/kg, ip; format: organism-based; conditions: in vivo
HepG2 [16] = assay: Induction of mitochondrial membrane potential loss in human HepG2 cells assessed as intact mitochondrial membrane potential at 5 uM after 48 hrs by TMRM dye based flow cytometric analysis (reference value: 74.2%); format: cell-based; conditions: hepg2, 48 h
[17] = Effect on bile acid homeostasis in HCD-fed C57BL/6 mouse assessed as down regulation of Ost-alpha mRNA expression by RT-qPCR analysis; format: functional
[18] = Induction of LDLR mRNA level in human HepG2 cells assessed as fold increase in LDLR expression at 1 uM by RT-qPCR analysis; format: functional
[19] = Hepatotoxicity in renal carcinoma xenografted C57BL/6 mouse assessed as fold increase in plasma AST at 0.8 mg/kg, ip; format: toxicity, organism-based; conditions: in vivo
[20] = Toxicity in renal carcinoma xenografted C57BL/6 mouse assessed as effect on visceral coefficient of spleen at 0.8 mg/kg, ip; format: organism-based; conditions: in vivo
Mus musculus [21] = species on record: Mus musculus; assay: Effect on bile acid homeostasis in HCD-fed C57BL/6 mouse assessed as change in Bsep mRNA expression by RT-qPCR analysis; format: functional
Mus musculus [22] = assay: Induction of hepatic pathological changes in normal chow diet fed C57BL/6 mouse at 0.8 mg/kg, ip; format: organism-based; conditions: in vivo
Mus musculus [23] = species on record: Mus musculus; assay: Effect on bile acid homeostasis in HCD-fed C57BL/6 mouse assessed as change in Mrp2 mRNA expression by RT-qPCR analysis; format: functional
[24] = Toxicity in renal carcinoma xenografted C57BL/6 mouse assessed as effect on visceral coefficient of liver at 0.8 mg/kg, ip; format: organism-based; conditions: in vivo
[25] = Toxicity in renal carcinoma xenografted C57BL/6 mouse assessed as effect on visceral coefficient of heart at 0.8 mg/kg, ip; format: organism-based; conditions: in vivo
[26] = Down regulation of SHP mRNA level in human HepG2 cells at 5 uM by RT-qPCR analysis; format: functional
[27] = Effect on bile acid homeostasis in HCD-fed C57BL/6 mouse assessed as reversal of LXRbeta mRNA upregulation by RT-qPCR analysis; format: functional
[28] = Induction of Cholesterol accumulation in human HepG2 cells assessed as fold increase in LDL-cholesterol level at 5 uM after 48 hrs; format: functional
[29] = Hepatotoxicity in renal carcinoma xenografted C57BL/6 mouse assessed as liver necrosis at 0.8 mg/kg, ip by histological analysis; format: toxicity, organism-based; conditions: in vivo
[30] = Hepatotoxicity in renal carcinoma xenografted C57BL/6 mouse assessed as effect on body weight at 0.8 mg/kg, ip; format: toxicity, organism-based; conditions: in vivo
[31] = Down regulation of Cyp7a1 mRNA expression level in human HepG2 cells at 1 uM by RT-qPCR analysis; format: functional
Mus musculus [32] = assay: Induction of histopathological changes in HCD-fed C57BL/6 mouse assessed as striking subcapsular foci at 0.8 mg/kg, ip; format: organism-based; conditions: in vivo
HepG2 [33] = assay: Induction of apoptosis in human HepG2 cells assessed as necrotic cells at 5 uM measured after 48 hrs by Annexin-V-FITC/propidium iodide staining based flow cytometry (reference value: 0 %); format: functional
Mus musculus [34] = assay: Reversal of HCD-induced LXRalpha activation in C57BL/6 mouse assessed as decrease in LXRalpha protein level at 0.8 mg/kg, ip; format: functional; set-up: scale not given: the % may be the effect or the level left
HepG2 [35] = assay: Induction of calcium signal in human HepG2 cells at 5 uM by Fluo-4AM dye based fluorescence assay; format: functional, cell-based
[36] = Effect on bile acid homeostasis in HCD-fed C57BL/6 mouse assessed as reduction in Ntcp-mRNA expression by RT-qPCR analysis; format: functional; set-up: scale not given: the % may be the effect or the level left
Mus musculus [37] = assay: Induction of HCD-induced cholestasis in C57BL/6 mouse assessed as lipid accumulation in liver at 0.8 mg/kg, ip; format: functional, organism-based
[38] = Effect on bile acid homeostasis in HCD-fed C57BL/6 mouse assessed as down regulation of Oatp1 mRNA expression by RT-qPCR analysis; format: functional
HepG2 [39] = assay: Induction of apoptosis in human HepG2 cells assessed as late apoptotic cells at 5 uM measured after 48 hrs by Annexin-V-FITC/propidium iodide staining based flow cytometry (reference value: 0 %); format: functional
[40] = Effect on bile acid homeostasis in HCD-fed C57BL/6 mouse assessed as inhibition of Cyp7a1 mRNA expression by RT-qPCR analysis; format: functional; set-up: scale not given: the % may be the effect or the level left
Mus musculus [41] = assay: Induction of HCD-induced cholestasis in C57BL/6 mouse assessed as fold increase in plasma total bile acid level at 0.8 mg/kg, ip; format: functional
[42] = Hepatotoxicity in renal carcinoma xenografted C57BL/6 mouse assessed as inflammatory infiltration at 0.8 mg/kg, ip by histological analysis; format: toxicity, organism-based; conditions: in vivo
[43] = Induction of LDLR mRNA level in human HepG2 cells assessed as fold increase in LDLR expression at 5 uM by RT-qPCR analysis; format: functional

For `C/C=C(\C)[C@H](O[C@@H]1O[C@H](CO)[C@@H](O)[C@H](O)[C@H]1O)[C@H](C)/C=C(C)/C=C/C/C(C)=C/Cc1nc(OC)c(OC)c(O)c1C`, the Activity [1] was “Non-Toxic”, the “fold change (FC)” value [2] was 2.3 and the Activity [3] was “Toxic”. For the same compound, the “fold change (FC)” value [4] was 3.8, the Activity (Mus musculus [5]) was “inactive” and the Activity [6] was “Non-Toxic”. The Activity (HepG2 [7]) was “Toxic”, the Activity [8] was “Non-Toxic” and the Activity [9] was “Toxic”. For the same compound, the “fold change (FC)” value (Mus musculus [10]) was 2.9, the Activity (Mus musculus [11]) was “inactive” and the Activity [12] was “Toxic”. For the same compound, the Activity (Mus musculus [13]) was “inactive”, the Activity [14] was “Non-Toxic” and the Activity [15] was “Non-Toxic”. For the same compound, the Activity (HepG2 [16]) was 16.6%, the Activity [17] was 44% and the “fold change (FC)” value [18] was 2.5. For the same compound, the “fold change (FC)” value [19] was 2.2, the Activity [20] was “Non-Toxic” and the Activity (Mus musculus [21]) was “inactive”. The Activity (Mus musculus [22]) was “Non-Toxic”, the Activity (Mus musculus [23]) was “inactive” and the Activity [24] was “Non-Toxic”. The Activity [25] was “Non-Toxic”, the Activity [26] was 61% and the Activity [27] was 72%. For the same compound, the “fold change (FC)” value [28] was 3.1, the Activity [29] was “Toxic” and the Activity [30] was “Non-Toxic”. The Activity [31] was 51%, the Activity (Mus musculus [32]) was “Toxic” and the Activity (HepG2 [33]) was 0%. The Activity (Mus musculus [34]) was 46%, the Activity (HepG2 [35]) was “Active” and the Activity [36] was 42%. For the same compound, the Activity (Mus musculus [37]) was “Active”, the Activity [38] was 65% and the Activity (HepG2 [39]) was 0%. For the same compound, the Activity [40] was 14%, the “fold change (FC)” value (Mus musculus [41]) was 3.5 and the Activity [42] was “Toxic”. The “fold change (FC)” value [43] was 2.2.
